≈ marks a conversion by molar mass, not a printed value.
System: Mycobacterium tuberculosis H37Rv (ATCC 27294)
Test: Microplate Alamar Blue Assay (MABA): primary screening and MIC determination
Type: cell-based
Conditions: Mycobacterium tuberculosis; retest at lower concentrations in the MABA; read-out: MIC

Compound | MIC
Clc1ccc(Cn2cnc3c(-c4ccco4)ncnc32)cc1 [Example 27, 9-(4-Chlorophenylmethyl)-6-(2-furyl)-9H-purine] | 6.25 µg/mL (≈ 20.1 µM)
Clc1ccc(Cn2cnc3c(-c4ccco4)ncnc32)cc1Cl [Example 28, 9-(3,4-Dichlorophenylmethyl)-6-(2-furyl)-9H-purine] | 6.25 µg/mL (≈ 18.1 µM)
Fc1ccc(Cn2cnc3c(-c4ccco4)ncnc32)cc1 [Example 29, 9-(4-Fluorophenylmethyl)-6-(2-furyl)-9H-purine] | 6.25 µg/mL (≈ 21.2 µM)
Cc1ccc(Cn2cnc3c(-c4ccco4)ncnc32)cc1 [Example 31, 6-(2-Furyl)-9-(4-methylphenylmethyl)-9H-purine] | 3.13 µg/mL (≈ 10.8 µM)
CC(C)(C)c1ccc(Cn2cnc3c(-c4ccco4)ncnc32)cc1 [Example 32, 9-(4-tert-Butylphenylmethyl)-6-(2-furyl)-9H-purine] | 12.5 µg/mL (≈ 37.6 µM)
COc1cccc(Cn2cnc3c(-c4ccco4)ncnc32)c1 [Example 34, 6-(2-Furyl)-9-(3-methoxyphenylmethyl)-9H-purine] | 6.25 µg/mL (≈ 20.4 µM)
COc1ccc(Cn2cnc3c(-c4ccco4)ncnc32)cc1C [Example 35, 6-(2-Furyl)-9-(4-methoxy-3-methylphenylmethyl)-9H-purine] | 0.78 µg/mL (≈ 2.43 µM)
CCOc1ccc(Cn2cnc3c(-c4ccco4)ncnc32)cc1 [Example 39, 9-(4-Ethoxyphenylmethyl)-6-(2-furyl)-9H-purine] | 3.13 µg/mL (≈ 9.77 µM)
c1ccc(COc2ccc(Cn3cnc4c(-c5ccco5)ncnc43)cc2)cc1 [Example 40, 9-(4-Benzyloxyphenylmethyl)-6-(2-furyl)-9H-purine] | 1.56 µg/mL (≈ 4.08 µM)
Clc1ccc(Cn2cnc3c(-c4ccco4)nc(Cl)nc32)cc1 [Example 46, 2-Chloro-9-(4-chlorophenylmethyl)-6-(2-furyl)-9H-purine] | 1.56 µg/mL (≈ 4.52 µM)

Same assay, conditions: retest at lower concentrations in the MABA

Compound | MIC
2-Chloro-6-(2-furyl)-9-(4-methyloxyphenylmethyl)-9H-purine [Example 50] | 0.78 µg/mL
2-Cyclopentenyl-6-(2-furyl)-9-(4-methoxyphenylmethyl)-9H-purine [Example 81] | 6.25 µg/mL

System: not given
Test: not given
Conditions: not given

Compound | melting point
COc1ccc(Cn2c(Cl)nc3c(-c4ccc(Cl)o4)ncnc32)cc1 | 166 to 168 °C
CCSc1nc(-c2ccco2)c2ncn(Cc3ccc(OC)cc3)c2n1 | 116 to 117 °C
CCCOc1nc(-c2ccco2)c2ncn(Cc3ccc(OC)cc3)c2n1 | 119 °C
COc1ccc(Cn2cnc3c(-c4ccco4)nc(OC(C)C)nc32)cc1 | 145 to 146 °C
CCCCOc1nc(-c2ccco2)c2ncn(Cc3ccc(OC)cc3)c2n1 | 113 °C
COc1ccc(Cn2cnc3c(-c4ccco4)nc(OCc4ccccc4)nc32)cc1 | 122 °C
COc1ccc(Cn2cnc3c(-c4ccco4)nc(I)nc32)cc1 | 145 to 148 °C
COc1ccc(Cn2cnc3c(-c4ccco4)nc(NC(C)=O)nc32)cc1 | 167 to 168 °C
COc1ccc(Cn2cnc3c(-c4ccco4)nc(N(C(C)=O)C(C)=O)nc32)cc1 | 187 to 189 °C
CNc1nc(-c2ccco2)c2ncn(Cc3ccc(OC)cc3)c2n1 | 144 to 145 °C
COc1ccc(Cn2cnc3c(-c4ccco4)nc(N(C)C)nc32)cc1 | 163 to 164 °C
CCOc1nc(-c2ccco2)c2ncn(Cc3ccc(OC)cc3)c2n1 | 137 to 138 °C
CC#Cc1nc(-c2ccco2)c2ncn(Cc3ccc(OC)cc3)c2n1 | 158 to 160 °C
Clc1ccc(Cn2cnc3c(-c4ccco4)ncnc32)cc1 [Example 27, 9-(4-Chlorophenylmethyl)-6-(2-furyl)-9H-purine] | 156 to 159 °C
Clc1ccc(Cn2cnc3c(-c4ccco4)ncnc32)cc1Cl [Example 28, 9-(3,4-Dichlorophenylmethyl)-6-(2-furyl)-9H-purine] | 183 to 185 °C
Fc1ccc(Cn2cnc3c(-c4ccco4)ncnc32)cc1 [Example 29, 9-(4-Fluorophenylmethyl)-6-(2-furyl)-9H-purine] | 162 to 164 °C
FC(F)(F)c1ccc(Cn2cnc3c(-c4ccco4)ncnc32)cc1 [Example 30, 6-(2-Furyl)-9-(4-trifluoromethylphenylmethyl)-9H-purine] | 159 to 161 °C
Cc1ccc(Cn2cnc3c(-c4ccco4)ncnc32)cc1 [Example 31, 6-(2-Furyl)-9-(4-methylphenylmethyl)-9H-purine] | 166 to 167 °C
CC(C)(C)c1ccc(Cn2cnc3c(-c4ccco4)ncnc32)cc1 [Example 32, 9-(4-tert-Butylphenylmethyl)-6-(2-furyl)-9H-purine] | 185 to 187 °C
COc1cccc(Cn2cnc3c(-c4ccco4)ncnc32)c1 [Example 34, 6-(2-Furyl)-9-(3-methoxyphenylmethyl)-9H-purine] | 138 to 139 °C
COc1ccc(Cn2cnc3c(-c4ccco4)ncnc32)cc1C [Example 35, 6-(2-Furyl)-9-(4-methoxy-3-methylphenylmethyl)-9H-purine] | 169 to 170 °C
COc1cc(Cn2cnc3c(-c4ccco4)ncnc32)cc(OC)c1OC [Example 36, 6-(2-Furyl)-9-(3,4,5-trimethoxyphenylmethyl)-9H-purine] | 195 to 196 °C
FC(F)(F)Oc1ccc(Cn2cnc3c(-c4ccco4)ncnc32)cc1 [Example 37, 6-(2-Furyl)-9-(4-trifluoromethoxyphenylmethyl)-9H-purine] | 146 to 147 °C
FC(F)(F)Oc1cccc(Cn2cnc3c(-c4ccco4)ncnc32)c1 [Example 38, 6-(2-Furyl)-9-(3-trifluoromethoxyphenylmethyl)-9H-purine] | 133 to 135 °C
CCOc1ccc(Cn2cnc3c(-c4ccco4)ncnc32)cc1 [Example 39, 9-(4-Ethoxyphenylmethyl)-6-(2-furyl)-9H-purine] | 165 to 166 °C
c1ccc(COc2ccc(Cn3cnc4c(-c5ccco5)ncnc43)cc2)cc1 [Example 40, 9-(4-Benzyloxyphenylmethyl)-6-(2-furyl)-9H-purine] | 145 to 146 °C

Compound | melting point
Oc1ccc(Cn2cnc3c(-c4ccco4)ncnc32)cc1 [Example 41, 6-(2-Furyl)-9-(4-hydroxyphenylmethyl)-9H-purine] | 231 to 233 °C
CC(=O)Nc1ccc(Cn2cnc3c(-c4ccco4)ncnc32)cc1 [Example 44, 9-(4-Acetamidophenylmethyl)-6-(2-furyl)-9H-purine] | 278 to 280 °C
Nc1ccc(Cn2cnc3c(-c4ccco4)ncnc32)cc1 [Example 45, 9-(4-Aminophenylmethyl)-6-(2-furyl)-9H-purine] | 195 to 197 °C
COc1ccc(Cn2cnc3c(-c4ccco4)nc(F)nc32)cc1 [Example 57, 2-Fluoro-6-(2-furyl)-9-(4-methoxyphenylmethyl)-9H-purine] | 210 to 215 °C
COc1ccc(Cn2cnc3c(-c4ccco4)nc(N)nc32)cc1 [Example 61, 2-Amino-6-(2-furyl)-9-(4-methoxyphenylmethyl)-9H-purine] | 235 to 237 °C (dec.)
COc1ccc(CNc2nc(-c3ccco3)c3ncn(Cc4ccc(OC)cc4)c3n2)cc1 [Example 65, 6-(2-Furyl)-2-(4-methoxyphenylmethylamino)-9-(4-methoxyphenylmethyl)-9H-purine] | 153 to 154 °C
COc1ccc(Cn2cnc3c(-c4ccco4)nc(S(C)(=O)=O)nc32)cc1 [Example 70, 6-(2-Furyl)-9-(4-methoxyphenylmethyl)-2-methylsulfonyl-9H-purine] | 184 to 185 °C
COc1ccc(Cn2cnc3c(-c4ccco4)nc([N+](=O)[O-])nc32)cc1 [Example 72, 6-(2-Furyl)-9-(4-methoxyphenylmethyl)-2-nitro-9H-purine] | 182 to 183 °C
COc1ccc(Cn2cnc3c(-c4ccco4)nc(OC)nc32)cc1 [Example 74, 6-(2-Furyl)-2-methoxy-9-(4-methoxyphenylmethyl)-9H-purine] | 167 to 169 °C
COc1ccc(Cn2cnc3c(-c4ccco4)nc(C)nc32)cc1 [Example 76, 6-(2-Furyl)-9-(4-methoxyphenylmethyl)-2-methyl-9H-purine] | 127 to 130 °C
CCc1nc(-c2ccco2)c2ncn(Cc3ccc(OC)cc3)c2n1 [Example 77, 2-Ethyl-6-(2-furyl)-9-(4-methoxyphenylmethyl)-9H-purine] | 119 to 120 °C
COc1ccc(Cn2cnc3c(-c4ccco4)nc(C(C)C)nc32)cc1 [Example 78, 6-(2-Furyl)-9-(4-methoxyphenylmethyl)-2-(1-methylethyl)-9H-purine] | 123 °C
CCCCc1nc(-c2ccco2)c2ncn(Cc3ccc(OC)cc3)c2n1 [Example 79, 2-n-Butyl-6-(2-furyl)-9-(4-methoxyphenylmethyl)-9H-purine] | 103 °C
COc1ccc(Cn2cnc3c(-c4ccco4)nc(C4CC4)nc32)cc1 [Example 80, 2-Cyclopropyl-6-(2-furyl)-9-(4-methoxyphenylmethyl)-9H-purine] | 115 to 116 °C
C=Cc1nc(-c2ccco2)c2ncn(Cc3ccc(OC)cc3)c2n1 [Example 82, 2-Ethenyl-6-(2-furyl)-9-(4-methoxyphenylmethyl)-9H-purine] | 94 to 95 °C
C=C(OCC)c1nc(-c2ccco2)c2ncn(Cc3ccc(OC)cc3)c2n1 [Example 83, 2-(1-Ethoxyvinyl)-6-(2-furyl)-9-(4-methoxyphenylmethyl)-9H-purine] | 144 to 145 °C
COc1ccc(Cn2cnc3c(-c4ccco4)nc(-c4ccccc4)nc32)cc1 [Example 84, 6-(2-Furyl)-9-(4-methoxyphenylmethyl)-2-phenyl-9H-purine] | 140 to 142 °C
COc1ccc(Cn2cnc3c(-c4ccco4)nc(C(C)=O)nc32)cc1 [Example 86, 2-Acetyl-6-(2-furyl)-9-(4-methoxyphenylmethyl)-9H-purine] | 166 to 167 °C
COc1ccc(Cn2cnc3c(-c4ccco4)nc(C#N)nc32)cc1 [Example 87, 6-(2-Furyl)-9-(4-methoxyphenylmethyl)-9H-purine-2-carbonitrile] | 205 to 207 °C
C#Cc1nc(-c2ccco2)c2ncn(Cc3ccc(OC)cc3)c2n1 [Example 89, 2-Ethynyl-6-(2-furyl)-9-(4-methoxyphenylmethyl)-9H-purine] | 155 °C
COc1ccc(Cn2cnc3c(-c4ccco4)nc(C(F)(F)F)nc32)cc1 [Example 94, 6-(2-Furyl)-9-(4-methoxyphenylmethyl)-2-trifluoromethyl-9H-purine] | 149 to 150 °C
COc1ccc(Cn2c(Cl)nc3c(-c4ccco4)ncnc32)cc1 [Example 99, 8-Chloro-6-(2-furyl)-9-(4-methoxyphenylmethyl)-9H-purine] | 156 to 157 °C
COc1ccc(Cn2c(Br)nc3c(-c4ccco4)ncnc32)cc1 [Example 101, 8-Bromo-6-(2-furyl)-9-(4-methoxyphenylmethyl)-9H-purine] | 150 to 151 °C
COc1ccc(Cn2c(-c3ccco3)nc3c(-c4ccco4)ncnc32)cc1 [Example 103, 6,8-Di(2-furyl)-9-(4-methoxyphenylmethyl)-9H-purine] | 134 to 136 °C
COc1ccc(Cn2c(OC)nc3c(-c4ccco4)ncnc32)cc1 [Example 104, 6-(2-Furyl)-8-methoxy-9-(4-methoxyphenylmethyl)-9H-purine] | 143 to 144 °C
COc1ccc(Cn2c(O)nc3c(-c4ccco4)ncnc32)cc1 [Example 105, 6-(2-Furyl)-8-hydroxy-9-(4-methoxyphenylmethyl)-9H-purine] | 249 to 251 °C

Reference: patent publication US20070203159A1, “Purine compounds” (priority 2006, published 2007)
